The source of these data is ChEMBL document CHEMBL1134187, “Synthesis and antitumor evaluation of novel monoindolyl-4-trifluoromethylpyridines and bisindolyl-4-trifluoromethylpyridines” (Bioorg Med Chem Lett, 2001).

For experiment [1], the system named is P388. Nature of the experiment: Inhibition of proliferation of […] at concentration of 0.1 uM was determined. The class given is functional. Conditions: Mus musculus.
The test system of experiment [2] is P388. Nature of the experiment: Inhibition of proliferation of […] at concentration of 10 uM was determined. Conditions: Mus musculus. In kind it is functional.
In experiment [3] the test system is P388. Nature of the experiment: Inhibition of proliferation of […] at concentration of 1 uM was determined. The class given is functional. The note with it: Mus musculus.
Experiment [4] relates to A549. Nature of the experiment: Inhibition of proliferation of A549 cells at concentration of 10 uM was determined. Conditions: Homo sapiens. The class given is functional.
For experiment [5], the system named is P388. Nature of the experiment: Inhibition of proliferation of […] at concentration of 100 uM was determined. The class given is functional. Conditions: Mus musculus.
The test system of experiment [6] is A549. Nature of the experiment: Inhibition of proliferation of A549 cells at concentration of 0.1 uM was determined. The note with it: Homo sapiens. The class given is functional.
The subject of experiment [7] is P388. Nature of the experiment: Concentration for in vitro cytotoxicity against murine P388 leukemia cells. The class given is functional, cell-based. The note with it: Mus musculus.
The subject of experiment [8] is A549. Nature of the experiment: Concentration for in vitro cytotoxicity against A-549 human lung tumor cells. The class given is functional, cell-based.
The test system of experiment [9] is A549. Nature of the experiment: Inhibition of proliferation of A549 cells at concentration of 100 uM was determined. In kind it is functional. Conditions: Homo sapiens.
Experiment [10] concerns A549. Nature of the experiment: Inhibition of proliferation of A549 cells at concentration of 1 uM was determined. In kind it is functional. Conditions: Homo sapiens.

Some results are limits rather than exact numbers.

One may read the inhibition as the change of the read-out against control, counted positive when it falls. Low values mean little suppression, high ones strong suppression. By IC50 is commonly meant the concentration that gives 50% inhibition. Read a low IC50 as higher potency.

Take `Cc1ccc(S(=O)(=O)n2cc(-c3cc(C(F)(F)F)cc(-c4cn(S(=O)(=O)c5ccc(C)cc5)c5cc(Br)ccc45)n3)c3ccc(Br)cc32)cc1`: the inhibition at 0.1 µM in the experiment with P388 [1] amounted to 8.1%; in the experiment on A549 [6] it was 25.8%. Further, the results for the inhibition at 10 µM in the experiment on P388 [2] and in the experiment on A549 [4] were 15.1% and 32%, respectively. Also, the results for the inhibition at 1 µM in the experiment with P388 [3] and with A549 [10] were 10% and 30.7%, respectively. Moreover, the inhibition at 100 µM with P388 [5] was 8.9%; with A549 [9], 49.2%. Moreover, the IC50 with P388 [7] and in the experiment on A549 [8] was above 100 µM throughout.

On to `Cc1ccc(S(=O)(=O)n2cc(-c3cc(C(F)(F)F)ccn3)c3cc(OCc4ccccc4)ccc32)cc1`, for which the inhibition at 10 µM with A549 [4] was found to be 9.9%. For the same compound, the results for the inhibition at 100 µM in the experiment with P388 [5] and in the experiment on A549 [9] were 2.2% and 35.9%, respectively. The compound also returned an inhibition at 0.1 µM in the experiment on A549 [6] of 16.9%. The IC50 with P388 [7] and in the experiment on A549 [8] was above 100 µM in each case. Further, in the experiment with A549 [10], testing at 1 µM gave an inhibition of 23.2%.

In the case of `Cc1ccc(S(=O)(=O)n2cc(-c3cc(C(F)(F)F)c(C#N)c(-c4cn(S(=O)(=O)c5ccc(C)cc5)c5ccc(Br)cc45)n3)c3cc(Br)ccc32)cc1`, the values for the inhibition at 1 µM with P388 [3] and in the experiment on A549 [10] were 3.7% and 17.4%, respectively. In the experiment with A549 [4], this compound displayed an inhibition at 10 µM of 9.6%. Further, the inhibition at 100 µM was found to be 8.2% with P388 [5] and 70.6% in the experiment on A549 [9]. Further, in the experiment with A549 [6], 0.1 µM produced 9.8% inhibition. In addition, the results for the IC50 in the experiment with P388 [7] and in the experiment with A549 [8] were above 100 µM and 78 µM, respectively.

`COc1ccc2c(-c3cc(C(F)(F)F)cc(-c4cn(S(=O)(=O)c5ccc(C)cc5)c5cc(OC)ccc45)n3)cn(S(=O)(=O)c3ccc(C)cc3)c2c1`: the figures for the inhibition at 10 µM in the experiment on P388 [2] and with A549 [4] were 92.8% and 28.8%, respectively. The values for the inhibition at 100 µM in the experiment with P388 [5] and with A549 [9] were 99.9% and 97.1%, respectively. For the same compound, in the experiment on A549 [6], the inhibition at 0.1 µM stood at 1.7%. Moreover, the values for the IC50 in the experiment with P388 [7] and in the experiment on A549 [8] were 4.3 µM and 1.7 µM, respectively. Further, at 1 µM the inhibition in the experiment on A549 [10] was 35.5%.

For the compound `Cc1ccc(S(=O)(=O)n2cc(-c3cc(C(F)(F)F)c(C#N)c(-c4cn(S(=O)(=O)c5ccc(C)cc5)c5cc(Br)ccc45)n3)c3ccc(Br)cc32)cc1`, the inhibition at 0.1 µM with P388 [1] came out at 3.1%; with A549 [6] it was 23.8%. Also, the inhibition at 10 µM in the experiment on P388 [2] turned out to be 5.7%; in the experiment on A549 [4] it was 27.6%. The inhibition at 1 µM in the experiment with P388 [3] came to 1.7%; with A549 [10], 18.8%. Besides, the inhibition at 100 µM in the experiment on P388 [5] is 1.3%; in the experiment on A549 [9], 48.1%. In addition, the IC50 with P388 [7] and with A549 [8] was above 100 µM throughout.

Consider `Cc1ccc(S(=O)(=O)n2cc(-c3cc(C(F)(F)F)ccn3)c3ccccc32)cc1`, for which the inhibition at 1 µM turned out to be 10.5% with P388 [3] and 23.8% with A549 [10]. This compound gave an inhibition at 10 µM with A549 [4] of 35%. Besides, the inhibition at 100 µM in the experiment with P388 [5] was determined as 49.9%; in the experiment with A549 [9], 68.4%. Besides, the inhibition at 0.1 µM in the experiment on A549 [6] is 25%. In addition, the IC50 in the experiment with P388 [7] is above 100 µM; in the experiment on A549 [8] it was 25 µM.

In the case of `COc1ccc2c(c1)c(-c1cc(C(F)(F)F)ccn1)cn2S(=O)(=O)c1ccc(C)cc1`, the inhibition at 10 µM in the experiment on A549 [4] was determined as 14.1%. Further, the inhibition at 100 µM in the experiment on P388 [5] worked out at 15.6%; in the experiment with A549 [9], 51.8%. Moreover, the inhibition at 0.1 µM in the experiment on A549 [6] came out at 16.9%. The IC50 in the experiment with P388 [7] and with A549 [8] was above 100 µM each time. Also, the inhibition at 1 µM with A549 [10] came out at 23.2%.

For the compound `Cc1ccc(S(=O)(=O)n2cc(-c3cc(C(F)(F)F)cc(-c4cn(S(=O)(=O)c5ccc(C)cc5)c5ccccc45)n3)c3ccccc32)cc1`, the inhibition at 0.1 µM was determined as 15.7% with P388 [1] and 37.5% in the experiment on A549 [6]. Further, the inhibition at 10 µM was found to be 23.5% with P388 [2] and 27.6% in the experiment with A549 [4]. For the same compound, the inhibition at 1 µM amounted to 20.9% in the experiment on P388 [3] and 36.7% in the experiment with A549 [10]. Moreover, the inhibition at 100 µM with P388 [5] stood at 14.7%; with A549 [9], 69.3%. Besides, the IC50 in the experiment with P388 [7] was above 100 µM; with A549 [8], 23 µM.

In the case of `COc1ccc2c(c1)c(-c1cc(C(F)(F)F)cc(-c3cn(S(=O)(=O)c4ccc(C)cc4)c4ccc(OC)cc34)n1)cn2S(=O)(=O)c1ccc(C)cc1`, the inhibition at 0.1 µM in the experiment on P388 [1] was 9.3%; in the experiment with A549 [6], 16.7%. Also, the values for the inhibition at 10 µM with P388 [2] and in the experiment on A549 [4] were 5% and 22.2%, respectively. The inhibition at 1 µM in the experiment with P388 [3] turned out to be 7%; in the experiment on A549 [10], 7.1%. The figures for the inhibition at 100 µM with P388 [5] and with A549 [9] were 13.8% and 41.7%, respectively. For the same compound, the half-maximal inhibitory concentration (IC50) with P388 [7] and in the experiment on A549 [8] was above 100 µM in each case.

For the compound `COc1ccc2c(c1)c(-c1cc(C(F)(F)F)c(C#N)c(-c3cn(S(=O)(=O)c4ccc(C)cc4)c4ccc(OC)cc34)n1)cn2S(=O)(=O)c1ccc(C)cc1`, the values for the inhibition at 0.1 µM in the experiment with P388 [1] and in the experiment on A549 [6] were 1.7% and 25%, respectively. Also, the inhibition at 10 µM in the experiment on P388 [2] stood at 3.5%; in the experiment on A549 [4], 25.2%. For the same compound, the IC50 in the experiment on P388 [7] and in the experiment on A549 [8] was above 100 µM each time. The same compound showed an inhibition at 100 µM in the experiment on A549 [9] of 17.7%. In the experiment with A549 [10], this compound displayed an inhibition at 1 µM of 24.4%.

`COc1ccc2c(-c3cc(C(F)(F)F)c(C#N)c(-c4cn(S(=O)(=O)c5ccc(C)cc5)c5cc(OC)ccc45)n3)cn(S(=O)(=O)c3ccc(C)cc3)c2c1`: the figures for the inhibition at 0.1 µM in the experiment on P388 [1] and with A549 [6] were 5.1% and 33%, respectively. For the same compound, the figures for the inhibition at 10 µM with P388 [2] and with A549 [4] were 10.1% and 13.3%, respectively. In addition, the inhibition at 1 µM was 9.1% with P388 [3] and 26.7% in the experiment on A549 [10]. For the same compound, the inhibition at 100 µM with P388 [5] amounted to 3.8%; in the experiment with A549 [9], 21.2%. Further, the IC50 with P388 [7] and in the experiment on A549 [8] was above 100 µM each time.

As to `Cc1ccc(S(=O)(=O)n2cc(-c3cc(C(F)(F)F)ccn3)c3cc(Br)ccc32)cc1`, the figures for the inhibition at 0.1 µM with P388 [1] and in the experiment with A549 [6] were 9.7% and 38.9%, respectively. Further, the results for the inhibition at 10 µM with P388 [2] and with A549 [4] were 21.9% and 20.6%, respectively. Moreover, the inhibition at 1 µM was 17.8% with P388 [3] and 32.8% with A549 [10]. Besides, the inhibition at 100 µM was 32.6% in the experiment with P388 [5] and 98% with A549 [9]. The IC50 was above 100 µM with P388 [7] and 4.1 µM with A549 [8].
